# Patent US5250695A, “Use of specific counteranions to modify the solubility of tetrazolium salts” (Miles Inc., priority 1992, dated 1993)
# How the values were obtained:
# [1] = Solubility testing of tetrazolium salts in methanol and water (Table I); details: for solubility in methanol (in words) / solubility in water (in words): discussion of Table I
# [2] = cited from earlier work
# [3] = Impregnation of zwitterionic nylon fabric with tetrazolium salt and ATP; HPLC of methanol extract, extraction into aqueous impregnation solution (Example II); details: 1 liter remaining after aqueous ATP impregnation
# Excerpt: The solution also contained some formazan which was not quantified.
# 4 L×0.08 moles/L=0.32 moles of tetrazolium salt impregnated into the membrane during first treatment.
# 1 L×0.006 moles/L=0.006 moles extracted during aqueous impregnation.
# [4] = listed as DCT tetrafluoroborate
SMILES,"Solubility, Water [1]","Solubility, Methanol [1]",other results
"O=[N+]([O-])c1ccc(-n2nc(-c3ccccc3)n[n+]2-c2ccc(I)cc2)cc1 [INT Cl^-, 2-(4-iodophenyl)-3-(4-nitrophenyl)-5-phenyl tetrazolium, reference compound]",3 m mol L,–,–
"COc1cc(-[n+]2nc(-c3ccc4c(c3)OCO4)nn2-c2nc(C(F)F)c(Cl)s2)cc(OC)c1OC [DCT PrSO3^-, 2-(4-difluoromethyl-5-chlorothiazol-2-yl)-3-(3,4,5-trimethoxyphenyl)-5-(3,4-methylenedioxyphenyl) tetrazolium]",16 m mol L,> 650 m mol L,–
C=C1CC(C)C2C3Cc4ccc(O)cc4C2(CCN3CC2CCC2)C1 (stereo not drawn) [17-cyclobutylmethyl-3-hydroxy-862-methyl-6-methylene morphinane],–,–,"solubility on converting chloride salt to methanesulfonate ([2]; U.S. Pat. No. 4,334,071): enhancement of the solubility"
"COc1ccc(-c2nn(-c3nc4c(cc(OC)c5ccccc54)s3)[n+](-c3cc(OC)c(OC)c(OC)c3)n2)cc1 [MTM BzSO3, 2-(5-methoxynaphtho[1,2-d]thiazol-2-yl)-3-(3,4,5-trimethoxyphenyl)-5-(4-methoxyphenyl) tetrazolium]",–,19 m mol L,solubility in methanol (in words) ([1]; listed as MTM benzenesulfonate): substantially greater than the nitrate
"O=[N+]([O-])c1ccc(-n2nc(-c3ccccc3)n[n+]2-c2ccc(I)cc2)cc1 [INT MeSO3^-, 2-(4-iodophenyl)-3-(4-nitrophenyl)-5-phenyl tetrazolium]",35 m mol L,–,–
"COc1cc(-[n+]2nc(-c3ccc4c(c3)OCO4)nn2-c2nc(C(F)F)c(Cl)s2)cc(OC)c1OC [DCT BF4^-, 2-(4-difluoromethyl-5-chlorothiazol-2-yl)-3-(3,4,5-trimethoxyphenyl)-5-(3,4-methylenedioxyphenyl) tetrazolium]",< 0.5 m mol L,< 16 m mol L,"solubility in methanol (in words) [1, 4]: only marginally soluble; solubility in water (in words) [1, 4]: only marginally soluble"
"COc1ccccc1-[n+]1nc(-c2ccc3c(c2)OCO3)nn1-c1nc(C(F)F)c(Cl)s1 [DCMT PrSO3^-, 2-(4-difluoromethyl-5-chlorothiazol-2-yl)-3-(2 methoxyphenyl)-5-(3,4-methylenedioxyphenyl) tetrazolium]",23 m mol L,> 760 m mol L,–
"COc1ccc(-c2nn(-c3nc4c(cc(OC)c5ccccc54)s3)[n+](-c3cc(OC)c(OC)c(OC)c3)n2)cc1 [MTM PrSO3^-, 2-(5-methoxynaphtho[1,2-d]thiazol-2-yl)-3-(3,4,5-trimethoxyphenyl)-5-(4-methoxyphenyl) tetrazolium]",–,100 m mol L,solubility in methanol (in words) ([1]; listed as MTM propanesulfonate): substantially increased
"COc1cc(-[n+]2nc(-c3ccc4c(c3)OCO4)nn2-c2nc(C(F)F)c(Cl)s2)cc(OC)c1OC [DCT Br^-, 2-(4-difluoromethyl-5-chlorothiazol-2-yl)-3-(3,4,5-trimethoxyphenyl)-5-(3,4-methylenedioxyphenyl) tetrazolium]",< 1 m mol L,10 m mol L,solubility in methanol (in words) ([1]; listed as DCT bromide): only marginally soluble; solubility in water (in words) ([1]; listed as DCT bromide): only marginally soluble
"COc1cc(-[n+]2nc(-c3ccc4c(c3)OCO4)nn2-c2nc(C(F)F)c(Cl)s2)cc(OC)c1OC [DCT MeSO3^-, 2-(4-difluoromethyl-5-chlorothiazol-2-yl)-3-(3,4,5-trimethoxyphenyl)-5-(3,4-methylenedioxyphenyl) tetrazolium]",73 m mol L,> 500 m mol L,solubility in methanol (in words) ([1]; listed as DCT methanesulfonate): highly soluble; solubility in water (in words) ([1]; listed as DCT methanesulfonate): highly soluble
"COc1ccccc1-[n+]1nc(-c2ccc3c(c2)OCO3)nn1-c1nc(C(F)F)c(Cl)s1 [DCMT BF4^-, 2-(4-difluoromethyl-5-chlorothiazol-2-yl)-3-(2 methoxyphenyl)-5-(3,4-methylenedioxyphenyl) tetrazolium]",2.7 m mol L,12.9 m mol L,–
"COc1ccc(-c2nn(-c3nc4c(cc(OC)c5ccccc54)s3)[n+](-c3cc(OC)c(OC)c(OC)c3)n2)cc1 [MTM NO3^-, 2-(5-methoxynaphtho[1,2-d]thiazol-2-yl)-3-(3,4,5-trimethoxyphenyl)-5-(4-methoxyphenyl) tetrazolium]",–,7.6 m mol L,–
"COc1cc(-[n+]2nc(-c3ccc4c(c3)OCO4)nn2-c2nc(C(F)F)c(Cl)s2)cc(OC)c1OC [DCT EtSO3^-, 2-(4-difluoromethyl-5-chlorothiazol-2-yl)-3-(3,4,5-trimethoxyphenyl)-5-(3,4-methylenedioxyphenyl) tetrazolium]",26 m mol L,> 600 m mol L,–
"COc1ccccc1-[n+]1nc(-c2ccc3c(c2)OCO3)nn1-c1nc(C(F)F)c(Cl)s1 [DCMT MeSO3^-, 2-(4-difluoromethyl-5-chlorothiazol-2-yl)-3-(2 methoxyphenyl)-5-(3,4-methylenedioxyphenyl) tetrazolium]",248 m mol L,> 760 m mol L,solubility in methanol (in words) [1]: greatly enhanced; solubility in water (in words) [1]: greatly enhanced
"COc1ccccc1-[n+]1nc(-c2ccc3c(c2)OCO3)nn1-c1nc(C(F)F)c(Cl)s1 [DCMT PeSO3^-, 2-(4-difluoromethyl-5-chlorothiazol-2-yl)-3-(2 methoxyphenyl)-5-(3,4-methylenedioxyphenyl) tetrazolium]",2.6 m mol L,> 700 m mol L,–
"COc1ccccc1-[n+]1nc(-c2ccc3c(c2)OCO3)nn1-c1nc(C(F)F)c(Cl)s1 [DCMT Br^-, 2-(4-difluoromethyl-5-chlorothiazol-2-yl)-3-(2 methoxyphenyl)-5-(3,4-methylenedioxyphenyl) tetrazolium]",< 1 m mol L,24 m mol L,–
"COc1ccc(-c2nn(-c3nc4c(cc(OC)c5ccccc54)s3)[n+](-c3cc(OC)c(OC)c(OC)c3)n2)cc1 [MTM MeSO3^-, 2-(5-methoxynaphtho[1,2-d]thiazol-2-yl)-3-(3,4,5-trimethoxyphenyl)-5-(4-methoxyphenyl) tetrazolium]",–,48 m mol L,solubility in methanol (in words) ([1]; listed as MTM methanesulfonate): substantially increased
"COc1ccccc1-[n+]1nc(-c2ccc3c(c2)OCO3)nn1-c1nc(C(F)F)c(Cl)s1 [DCMT BuSO3^-, 2-(4-difluoromethyl-5-chlorothiazol-2-yl)-3-(2 methoxyphenyl)-5-(3,4-methylenedioxyphenyl) tetrazolium]",15 m mol L,> 700 m mol L,–
"CN1CC[C@]23c4c5ccc(OCc6ccccc6)c4O[C@H]2[C@@H](O)C=C[C@H]3[C@H]1C5 [benzylmorphine, reference compound]",–,–,"water solubility after conversion to alkyl sulphonic acid salt ([2]; U.S. Pat. No. 1,892,019, methane or ethanesulfonic acid): increased water solubility"
"COc1cc(-[n+]2nc(-c3ccc4c(c3)OCO4)nn2-c2nc(C(F)F)c(Cl)s2)cc(OC)c1OC [DCT BzSO3^-, 2-(4-difluoromethyl-5-chlorothiazol-2-yl)-3-(3,4,5 trimethoxyphenyl)-(5-(3,4-methylenedioxyphenyl)tetrazolium benzenesulfonate]",–,> 550 m mol L,tetrazolium salt extracted from the treated membrane into remaining aqueous solution [3]: 3 mM; solubility in methanol (in words) ([1]; listed as DCT benzenesulfonate): high methanol solubility
"COc1cc(-[n+]2nc(-c3ccc4c(c3)OCO4)nn2-c2nc(C(F)F)c(Cl)s2)cc(OC)c1OC [DCT NO3^-, 2-(4-difluoromethyl-5-chlorothiazol-2-yl)-3-(3,4,5-trimethoxyphenyl)-5-(3,4-methylenedioxyphenyl) tetrazolium]",2 m mol L,22 m mol L,solubility in methanol (in words) ([1]; listed as DCT nitrate): only marginally soluble; solubility in water (in words) ([1]; listed as DCT nitrate): only marginally soluble
